# System: Alzheimer's disease-induced mouse model (amyloid beta1-42 peptide-infused mouse model)
# Assay: Morris water maze test (memory test)
# Type: in vivo, C57BL/6 mouse
# Conditions: Aβ-infused mice + donepezil 1 mg/kg (positive control); platform removed, 60 seconds free swimming; average ± S.E.M.
# Protocol: Specifically, the following experiment was carried out by applying a conventional Morris method. First, a mouse was transferred to a behavior observation chamber and stabilized one hour before the initiation of the experiment. The maze dimension includes a diameter of 90 cm and a height of 32.5 cm, and the diameter of a white platform is 5 cm. In the periphery of the underwater maze, spatial cues such as a computer system connected with a video camera and a device for controlling a water temperature were always regularly maintained. Afterward, the maze was filled with water so that the platform is installed 1 cm below the water level, such that a mouse cannot see the platform. The maze was divided into quadrants using four markers, the quadrants were classified as northeast (NE), northwest (NW), southeast (SE), and southwest (SW), and the platform was installed in one quadrant of the maze. […] On the sixth day, the platform was removed from the maze, and then the residence time of a mouse in the quadrant in which the platform was placed was measured. On the final day […] of the Morris water maze test, to perform a memory test, the platform was removed, free swimming was allowed for 60 seconds, and the residence time of a mouse in the quadrant in which the platform was placed was measured in percentage using a Smart program.
smiles,measurement,value
COc1cc2c(cc1OC)C(=O)C(CC1CCN(Cc3ccccc3)CC1)C2 (stereo not shown) [donepezil],Residence time in quadrant (%),59.222±2.918%

# — patent publication US20220080015A1, “METHOD OF PREVENTING AND TREATING NEURODEGENERATIVE DISORDERS USING SOPHORA JAPONICA L. EXTRACT AS ACTIVE INGREDIENT” (UNIVERSITY-INDUSTRY COOPERATION GROUP OF KYUNG HEE …, priority 2016, published 2022)
